Test results taken from patent US20050142229A1, “Pharmaceutical activity and manufacturing method of the four-plant-derived coronary blood flow enhancing agent” (priority 2003, published 2005).

Tested on: isolated guinea pig heart
Experiment: Effect on coronary blood flow of the isolated guinea pig heart (perfusion with KH solution)
Protocol: 1. Effect on coronary blood flow of the isolated guinea pig heart. • (1) The perfusion circuit was maintained at 37±1° C. and the perfusate in the condensing tube was thermostatic. The upper end of the condensing tube was connected with reservoir and the lower with aortic cannula via rubber tube. The perfusate level in reservoir A was constant by controlling the height of liquid below the air inlet in reservoir B. The perfusate level was about 50 cm above the aortic root. Constant oxygen was gassed into reservoir A to make the KH solution saturated with oxygen. When full of the oxygenated LH solution, the perfusion tube was clamped. • (2) On […], weighing 300 g, was stunned and exsanguinated via carotid. The chest and pericardium were opened, and then the heart was suspended in the pericardial cradle. The heart was exercised and immediately put into the cold KH solution (4° C.). The remaining blood was pressed out gently. After aortic cannulation at the top of the ascending aorta, the clamp was opened and the coronary venous effluent was present (route: coronary artery→myocardium→right atrium→vena cava and pulmonary artery). The pressure transducer was connected with the apex of heart to record the graphs and count the heart beat. The coronary venous effluent dripped into the measuring cup via a funnel. • (3) Coronary Blood Flow Measurement: The heart was allowed to recover for 10 minutes to stabilize coronary blood flow, heart rate, and heart beat amplitude. The per-minute flow volume was measured consecutively for 3 minutes. If the values were similar, the average was calculated for the normal coronary blood flow. […] The test sample and isoprenaline was injected into the aortic cannula respectively. The per-minute coronary blood flow, heart rate and heart beat duration were measured during 1˜10 min after administration, the maximum and minimum were picked out to caculate the extreme difference. Note: the second administration should not be given until the coronary blood flow returned to normal. Five replicate experiments were conducted to ensure the reproductivity.

[1] = isolated heart, 0.25 μg injected into aortic cannula, X ± SD

## CC(C)NCC(O)c1ccc(O)c(O)c1 (stereo not drawn) [Isoprenaline]
Isolated guinea pig heart
  coronary blood flow (result in words): increased
  heart rate (result in words): increased
  myocardial contraction (result in words): increased
[1]
  Coronary Blood Flow, After administration: 20 ± 4 mL/min
  Heart Rate, After administration: 198 ± 21 time/min
  Heart beat duration, After administration: 62 ± 10 min
